Assay results from ChEMBL document CHEMBL5727188, “GLS1 inhibitors for treating disease” (2019).

target: T1, Glutaminase kidney isoform, mitochondrial (Homo sapiens, UniProt O94925); assay: Enzymatic Activity Assay: The inhibition of purified recombinant human GAC by varying concentrations of inhibitors is assessed via a dual-coupled enzymatic assay. The glutamate produced by the glutaminase reaction is used by glutamate oxidase to produce α-ketoglutarate, ammonia, and hydrogen peroxide, with this hydrogen peroxide subsequently being used by horseradish peroxidase to produce resorufin in the presence of Amplex UltraRed. The assay buffer consisted of 50 mM Hepes (pH 7.4), 0.25 mM EDTA and 0.1 mM Triton X-100. GAC was incubated with potassium phosphate (10 minutes at room temperature) prior to incubation with inhibitor (10 minutes at room temperature). The final reaction conditions were as follows: 2 nM GAC, 50 mM potassium phosphate, 100 mU/mL glutamate oxidase (Sigma), 1 mM glutamine (Sigma), 100 mU/mL horseradish peroxidase (Sigma), 75 μM Amplex UltraRed (Life Technologies), and 1% (v/v) DMSO. The production of resorufin was monitored on a Perkin Elmer Envision plate reader (excitation 530 nm, emission 590 nm) either in a kinetics or endpoint mode (at 20 minutes). IC50 values were calculated using a four-parameter logistic curve fit.
T1 sequence (O94925 whole entry): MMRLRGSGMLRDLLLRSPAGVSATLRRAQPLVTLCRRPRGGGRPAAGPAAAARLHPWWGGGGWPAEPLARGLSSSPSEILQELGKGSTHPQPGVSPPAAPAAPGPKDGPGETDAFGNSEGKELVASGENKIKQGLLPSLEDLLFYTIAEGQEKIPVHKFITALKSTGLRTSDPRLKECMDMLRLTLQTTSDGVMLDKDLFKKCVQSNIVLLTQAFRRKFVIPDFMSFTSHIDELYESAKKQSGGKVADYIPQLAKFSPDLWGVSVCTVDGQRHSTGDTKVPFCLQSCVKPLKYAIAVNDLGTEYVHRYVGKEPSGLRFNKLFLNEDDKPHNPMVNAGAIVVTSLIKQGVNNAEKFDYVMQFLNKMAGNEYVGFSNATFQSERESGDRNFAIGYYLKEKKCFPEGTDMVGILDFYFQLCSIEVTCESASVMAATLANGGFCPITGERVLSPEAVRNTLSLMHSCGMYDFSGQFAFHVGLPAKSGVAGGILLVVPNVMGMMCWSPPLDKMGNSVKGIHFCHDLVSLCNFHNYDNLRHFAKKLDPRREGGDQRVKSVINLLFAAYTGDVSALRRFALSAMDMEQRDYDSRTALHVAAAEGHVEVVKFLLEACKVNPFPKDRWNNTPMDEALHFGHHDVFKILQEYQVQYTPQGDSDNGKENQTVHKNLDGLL

IC50, < 100 nM:
O=C(NCc1cccc(OC(F)(F)F)c1)c1cn(CCCCn2cc(C(=O)NCc3ccc(C(F)(F)F)cn3)nn2)nn1, COc1cncc(CNC(=O)c2cn(CC(F)CCc3nnc(NC(=O)Cc4cccc(OC(F)(F)F)c4)s3)nn2)c1 (stereo not drawn), O=C(NCc1cc(C2CC2)ccn1)c1cn(CCC(F)Cn2cc(C(=O)NCc3cccc(C4CC4)c3)nn2)nn1 (stereo not drawn)
